The subject of the test is bacteria on healthy skin (back of the hand). Briefly: Anti-microbial effectiveness of nitric oxide on volunteers' hands (swab, five zone dilution on agar, zone-based grading). In kind it is in vivo. The source says: An experiment 46 used to determine the anti-microbial effectiveness of nitric oxide is illustrated in FIG. 3. In the experiment, five volunteers were selected 48. From a first hand of each volunteer, a technician using sterile gloves collected 50 a sample. This was accomplished by rubbing the back of the volunteer's hand with a sterile cotton collection swab for ten seconds. The swab was then applied 52 to a nutrient agar petri dish using the five corner or zone dilution method.
The five corner or zone dilution method involves mechanically diluting bacteria on a streak (blood agar) plate by sequentially spreading the bacteria across the plate in each of five zones. As the concentration of bacteria increases so do the number of zones containing bacteria. Bacteria on agar plate become visible as distinct circular colonies. Each colony represents an individual cell which has divided repeatedly to form a patch. The number of bacteria can be estimated by counting the number of patches or how far the bacteria is diluted by streaking it on the agar plate through the five zones.
After the sample was collected 50, the first hand was cleaned 54 using nitric oxide. This was done by placing the hand of the volunteer into a one-gallon plastic freezer bag. The bag was then inflated with nitric oxide through tubing attached to a portable nitric oxide generator. The open end of the bag was taped closed against the volunteer's forearm. A nitric oxide monitor assisted in keeping the nitric oxide concentration within the bag at 1,000 parts-per-million (ppm).
The volunteer maintained the hand inside the bag for fifteen minutes. After the fifteen minutes, the hand was removed from the bag in a sterile manner (i.e., the hand was not permitted to contact any non-sterile objects). Using sterile gloves and a sterile cotton collection swab, the technician collected 56 a second sample by rubbing the swab on the back of the hand for ten seconds. The swab was then applied 58 to a nutrient dish as explained above.
A similar process was followed with the volunteer's other hand. […]

Results on 1 compound are retold here after patent US8501090B2, “Anti-microbial gas apparatus and method” (priority 2008, dated 2013).

On to `[N]=O` [nitric oxide], for which, where the note is “bacteria exposed to nitric oxide, microbes on healthy skin”, the “reductions in colony counts of bacteria” value is recorded as “substantial reductions in colony counts”. The anti-microbial effects entry (direct comparison: immersing in enclosed environment of nitric oxide diluted with ambient air vs scrubbing with antibacterial soaps) is “superior to soaps”. Further, the bacterial colony count entry (hands exposed to 1,000 ppm nitric oxide for fifteen minutes, compared with hands washed with DIAL antibacterial soap for 2 minutes, five volunteers) is listed as “lower bacterial colony count”.
